Assays:
Type in all cases: cell-based
Raji [1] = assay: Inhibition of TPA-induced EBV-early antigen activation in human Raji cells at 1000 molar ratio after 48 hrs relative to TPA; design: scale not given: the % may be the effect or the level left; conditions: human gammaherpesvirus 4
Raji [2] = assay: Inhibition of TPA-induced EBV-early antigen activation in human Raji cells at 100 molar ratio after 48 hrs relative to TPA; design: scale not given: the % may be the effect or the level left; conditions: human gammaherpesvirus 4
Raji [3] = assay: Inhibition of TPA-induced EBV-early antigen activation in human Raji cells at 10 molar ratio after 48 hrs relative to TPA; design: scale not given: the % may be the effect or the level left; conditions: human gammaherpesvirus 4
Raji [4] = assay: Inhibition of TPA-induced EBV-early antigen activation in human Raji cells at 500 molar ratio after 48 hrs relative to TPA; design: scale not given: the % may be the effect or the level left; conditions: human gammaherpesvirus 4
[5] = Cytotoxicity against human Raji cells assessed as cell viability at 1000 molar ratio after 48 hrs by trypan blue assay; conditions: read-out: Activity

Row | SMILES | Activity (Raji [1]) [%] | Activity (Raji [2]) [%] | Activity (Raji [3]) [%] | Activity (Raji [4]) [%] | viability at 48 h, 1000 molar ratio [5] [%]
1 | CC(C)=CCC[C@]1(C)CC[C@]2(C)C3=CC[C@H]4C(C)(C)[C@@H](O)CC[C@]4(C)[C@H]3CC[C@@]2(C)C1 | 2.2 | 79.4 | 97.2 | 33.8 | 70
2 | CC1=C(/C=C/C(C)=C/C=C/C(C)=C/C=C/C=C(C)/C=C/C=C(C)/C=C/C2=C(C)CCCC2(C)C)C(C)(C)CCC1 | 8.6 |  | 100 |  | 
3 | CC(C)=CCC[C@@H](C)[C@@H]1CC[C@]2(C)C3=CC[C@H]4C(C)(C)[C@@H](O)CC[C@]4(C)C3=CC[C@@]12C [ANTIQUOL C] | 0 | 75 | 92.8 | 28.2 | 70
4 | CC(C)=CCC/C(C)=C/CC/C(C)=C/CC/C=C(\C)CC[C@@H]1C(C)=CC[C@H](O)C1(C)C [CAMELLIOL C] | 20.1 | 86.3 | 100 | 51.5 | 70
5 | CC(C)=CCC[C@@H](C)[C@@H]1CC[C@]2(C)C3=C(CC[C@@]12C)[C@@]1(C)CC[C@H](O)C(C)(C)[C@@H]1CC3 [EUPHOL] | 0 | 75.7 | 93.5 | 29.8 | 70
6 | C=C(CC[C@H](C)[C@@H]1CC[C@]2(C)C3=C(CC[C@@]12C)[C@@]1(C)CC[C@H](O)C(C)(C)[C@@H]1CC3)C(C)C [EUPHORBOL] | 0 | 77.9 | 95.8 | 32.6 | 70
7 | CC(C)=CCC[C@@H](C)[C@@H]1CC[C@]2(C)[C@H]3CCC(=C(C)C)[C@@H](CCCO)[C@]3(C)CC[C@@]12C [ISOHELIANOL] | 0 | 72.4 | 95.7 | 25.8 | 70

— ChEMBL document CHEMBL1159314, “Eupha-7,9(11),24-trien-3beta-ol ("antiquol C") and other triterpenes from Euphorbia antiquorum latex and their inhibitory effects on Epstein-Barr virus activation” (J Nat Prod, 2002)
